{"source": "patent US20120270935A1", "about": "“FORMULATIONS” (priority 2009, published 2012)", "key": {"P. acnes": {"test_system": "P. acnes", "experiment": "Agar dilution MIC assay, panel of propionibacterium strains", "type": "cell-based, Propionibacterium acnes", "protocol": "This is a standard international method for quantitatively assessing the antimicrobial activity of a compound in a solid medium. The test compound was prepared to 40× the highest concentration required (eg 10 mg/ml for a final concentration of […]) and a series of doubling dilutions were performed in a suitable solvent. A set amount of these antimicrobial stock solutions was then added to molten agar medium (ca 55° C.), mixed thoroughly, poured into sterile Petri dishes and allowed to cool/set. The culture medium was as described above.\nA Multipoint™ Inoculator (AQS Manufacturing Ltd, UK) was used to inoculate the plates by spotting the inocula onto the surface of the agar, delivering approximately 1 to 2 μl per spot (yielding 10^5 CFU (colony forming units) per spot).\nThe plate(s) were then incubated under the conditions described above, following which they were examined visually for signs of bacterial growth. The MIC value was ascertained when there was a marked reduction in, or total loss of, growth on the test plate at the lowest concentration as compared to that of the growth on the control plate.\nThe assays were conducted in triplicate and included a positive control (culture medium, diluting solvent and inoculum).\nThe activity (MIC by agar dilution) of copper usnate was determined against a panel of different propionibacterium strains. The culture medium was Wilkins-Chalgren agar, at pH 6.0. DMSO was used as the solvent. All tests were performed in triplicate."}, "S. pyogenes ATCC 12344 [1]": {"test_system": "S. pyogenes ATCC 12344", "experiment": "MBC assay", "type": "cell-based, Streptococcus pyogenes", "conditions": "Mueller-Hinton broth pH 7.0", "from_the_text": "(a) staphylococci. The Staphylococcus aureus strain used was ATCC 29213. S. aureus and other staphylococci are common causes of a wide range of skin, skin structure and wound infections; S. aureus is also known to exacerbate eczema. The ATCC 29213 strain is known to be susceptible to beta-lactam antibiotics such as methicillin. The Staphylococcus epidermidis strain used was NCTC 11047. Staph. epidermidis forms part of the resident flora of skin and is an opportunistic pathogen which can cause biofilms to grow for instance on plastic surgical implants such as catheters. Unless otherwise stated, the staphylococci were cultured and maintained on Mueller-Hinton Medium (agar and broth) at pH 7.2; cultures were incubated aerobically at 37° C. for 19-20 hours, at pH 7 (±0.2). (b) C. striatum NCTC 764. Corynebacterium striatum is closely related to organisms (aerobic diphtheroids of the genus Corynebacterium) that cause body odour. It was cultured and maintained on Mueller-Hinton medium (agar and broth). All cultures were incubated aerobically at 37° C. for 72 hours, at pH 7 (±0.2). (c) streptococci. The strains tested were S. mutans ATCC 25175 and S. pyogenes ATCC 12344. S. mutans is a Gram-positive, microaerophilic bacterium which plays a significant role in dental caries and in infective endocarditis. Streptococcus pyogenes is associated with skin, soft tissue, burn and wound infections. […]"}, "S. pyogenes ATCC 12344 [2]": {"test_system": "S. pyogenes ATCC 12344", "experiment": "Disc diffusion assay (DDA)", "type": "cell-based, Streptococcus pyogenes", "conditions": "200 μg per disc; Mueller-Hinton agar pH 7.0; 48 hours at 37° C., 5% carbon dioxide", "from_the_text": "(a) staphylococci. The Staphylococcus aureus strain used was ATCC 29213. S. aureus and other staphylococci are common causes of a wide range of skin, skin structure and wound infections; S. aureus is also known to exacerbate eczema. The ATCC 29213 strain is known to be susceptible to beta-lactam antibiotics such as methicillin. The Staphylococcus epidermidis strain used was NCTC 11047. Staph. epidermidis forms part of the resident flora of skin and is an opportunistic pathogen which can cause biofilms to grow for instance on plastic surgical implants such as catheters. Unless otherwise stated, the staphylococci were cultured and maintained on Mueller-Hinton Medium (agar and broth) at pH 7.2; cultures were incubated aerobically at 37° C. for 19-20 hours, at pH 7 (±0.2). (b) C. striatum NCTC 764. Corynebacterium striatum is closely related to organisms (aerobic diphtheroids of the genus Corynebacterium) that cause body odour. It was cultured and maintained on Mueller-Hinton medium (agar and broth). All cultures were incubated aerobically at 37° C. for 72 hours, at pH 7 (±0.2). (c) streptococci. The strains tested were S. mutans ATCC 25175 and S. pyogenes ATCC 12344. […] The diameter of this zone of “inhibition” was measured using a ProtoCOL™ automated zone sizer (Synbiosis, Cambridge, UK). […]"}}, "data": [{"smiles": "CC(=O)c1c([O-])c(C)c([O-])c2c1OC1=CC(=O)C(C(C)=O)C(=O)C12C.[Cu+2]", "note": "(stereo not shown) [Copper usnate, copper (II) usnate]", "values": [{"measurement": "MIC", "setting": "P. acnes; P. acnes NCTC 737, mutation None, resistance phenotype None", "value": 0.49, "unit": "µg/mL"}, {"measurement": "MIC", "setting": "P. acnes; P. acnes PRP-002, mutation 1058/2058, resistance Tet/MLS", "value": 0.49, "unit": "µg/mL"}, {"measurement": "MIC", "setting": "P. acnes; P. acnes PRP-003, mutation 1058, resistance Tet", "value": 0.49, "unit": "µg/mL"}, {"measurement": "MIC", "setting": "P. acnes; P. acnes PRP-004, mutation 1058, resistance Tet", "value": 0.49, "unit": "µg/mL"}, {"measurement": "MIC", "setting": "P. acnes; P. acnes PRP-007, mutation Unknown, resistance Clin", "value": 0.49, "unit": "µg/mL"}, {"measurement": "MIC", "setting": "P. acnes; P. acnes PRP-010, Erm X, resistance MLSK", "value": 0.49, "unit": "µg/mL"}, {"measurement": "MIC", "setting": "P. acnes; P. acnes PRP-017, mutation 2058, resistance MLS", "value": 0.49, "unit": "µg/mL"}, {"measurement": "MIC", "setting": "P. acnes; P. acnes PRP-023, Erm X, resistance MLSK", "value": 0.49, "unit": "µg/mL"}, {"measurement": "MIC", "setting": "P. acnes; P. acnes PRP-026, mutation 2059, resistance MLS", "value": 0.49, "unit": "µg/mL"}, {"measurement": "MIC", "setting": "P. acnes; P. acnes PRP-039, mutation 2059, resistance Tet/MLS", "value": 0.49, "unit": "µg/mL"}, {"measurement": "MIC", "setting": "P. acnes; P. acnes PRP-046, mutation None, resistance None", "value": 0.49, "unit": "µg/mL"}, {"measurement": "MIC", "setting": "P. acnes; P. acnes PRP-059, mutation 2058, resistance MLS", "value": 0.49, "unit": "µg/mL"}, {"measurement": "MIC", "setting": "P. acnes; P. acnes PRP-101, mutation 1058/2059, resistance Tet/MLS", "value": 0.49, "unit": "µg/mL"}, {"measurement": "MIC", "setting": "P. acnes; P. acnes PRP-102, mutation 1058/2059, resistance Tet/MLS", "value": 0.49, "unit": "µg/mL"}, {"measurement": "MBC", "setting": "S. pyogenes ATCC 12344 [1]", "value": 0.98, "unit": "µg/mL"}, {"measurement": "DDA zone diameter", "setting": "S. pyogenes ATCC 12344 [2]", "value": "31.3 ± 0.6", "unit": "mm"}]}]}
